# Assay results from US4933350A, “Pyrroloisoquinolines useful as hypercholesterolemic and hyperlipoprotienimic agents” (May & Baker Limited, priority 1987, dated 1990).
# What was measured:
# [1] = biological target: T1, rat hepatic microsomal HMG CoA reductase (Rattus norvegicus, UniProt P51639); assay: inhibition in rat hepatic microsomal HMG CoA reductase activity in vitro (Table I); format: biochemical; conditions: for inhibition at 0.082 µg/mL: 0.082 micrograms/ml; for inhibition at 0.25 µg/mL: 0.25 micrograms/ml; for inhibition at 0.74 µg/mL: 0.74 micrograms/ml; for inhibition at 2.22 µg/mL: 2.22 micrograms/ml; for inhibition at 6.66 µg/mL: 6.66 micrograms/ml; for inhibition at 20 µg/mL: 20.0 micrograms/ml; for inhibition at 0.24 µg/mL: 0.24 micrograms/ml; for inhibition at 0.2 µg/mL: 0.2 micrograms/ml; for inhibition at 0.0274 µg/mL: 0.0274 micrograms/ml; for inhibition at 0.0091 µg/mL: 0.0091 micrograms/ml; for inhibition at 6.7 µg/mL: 6.7 micrograms/ml
# T1 construct: rat hepatic microsomal HMG CoA reductase activity in vitro; from tissue; host or cells: rat liver microsomes
# T1 sequence (P51639 1-887): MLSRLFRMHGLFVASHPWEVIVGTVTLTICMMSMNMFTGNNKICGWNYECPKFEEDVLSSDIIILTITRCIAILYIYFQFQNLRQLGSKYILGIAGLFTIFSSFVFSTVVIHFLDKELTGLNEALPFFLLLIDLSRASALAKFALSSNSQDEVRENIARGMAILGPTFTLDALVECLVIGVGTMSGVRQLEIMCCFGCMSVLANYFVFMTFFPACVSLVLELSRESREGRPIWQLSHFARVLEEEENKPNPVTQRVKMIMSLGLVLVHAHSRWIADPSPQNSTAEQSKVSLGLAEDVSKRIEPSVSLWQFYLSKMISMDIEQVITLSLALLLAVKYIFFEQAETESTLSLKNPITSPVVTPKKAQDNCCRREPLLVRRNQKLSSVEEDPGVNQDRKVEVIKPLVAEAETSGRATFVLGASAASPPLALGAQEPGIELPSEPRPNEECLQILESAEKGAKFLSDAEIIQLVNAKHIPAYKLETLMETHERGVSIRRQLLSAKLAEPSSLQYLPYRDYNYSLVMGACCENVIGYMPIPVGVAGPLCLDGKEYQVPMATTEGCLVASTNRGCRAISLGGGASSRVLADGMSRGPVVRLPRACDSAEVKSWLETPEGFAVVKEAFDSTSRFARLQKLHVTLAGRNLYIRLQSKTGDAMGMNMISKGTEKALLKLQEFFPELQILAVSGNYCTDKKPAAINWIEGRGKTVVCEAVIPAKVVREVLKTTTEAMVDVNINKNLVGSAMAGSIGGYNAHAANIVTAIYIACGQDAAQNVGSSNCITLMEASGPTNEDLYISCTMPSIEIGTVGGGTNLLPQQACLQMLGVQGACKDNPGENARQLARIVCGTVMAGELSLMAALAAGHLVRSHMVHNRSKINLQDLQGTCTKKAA
# cholesterol biosynthesis = assay: inhibition in cholesterol biosynthesis, in vivo tests in rats, oral (Table II)
# Description: In the table the doses are expressed in mg/kg animal body weight.
SMILES,inhibition at 0.0274 µg/mL [1] [%],inhibition at 0.082 µg/mL [1] [%],inhibition at 0.74 µg/mL [1] [%],inhibition at 2.22 µg/mL [1] [%],inhibition at 6.66 µg/mL [1] [%],inhibition at 20 µg/mL [1] [%],inhibition at 0.24 µg/mL [1] [%],also measured
"Cc1c(/C=C/C(O)CC(O)CC(=O)O)c(-c2ccccc2)c2c3ccccc3ccn12 (centres unmarked) [Compound I, sodium (E)-3,5-dihydroxy-7-(3-methyl-1-phenylpyrrolo[2,1-a]isoquinolin-2-yl)hept-6-enoate]",,44,35,46,68,85,,inhibition at 0.25 µg/mL [1]: 39%
"CCOC(=O)CC(O)CC(O)/C=C/c1c(-c2ccccc2)c2c3ccccc3ccn2c1C (centres unmarked) [Compound H, ethyl (E)-3,5-dihydroxy-7-(3-methyl-1-phenylpyrrolo[2,1-a]-isoquinolin-2-yl)hept-6-enoate]",,,22,33,54,70,26,
"CC(C)c1c(/C=C/C(O)CC(O)CC(=O)[O-])c(-c2ccccc2)c2c3ccccc3ccn12.[Na+] (centres unmarked) [Compound B, sodium (E)-3,5-dihydroxy-7-(3-isopropyl-1-phenylpyrrolo[2,1-a]isoquinolin-2-yl)hept-6-enoate]",,,,,,98,,inhibition at 0.025 µg/mL ([1]; 0.025 micrograms/ml): 16%; inhibition at 0.1 µg/mL ([1]; 0.1 micrograms/ml): 28%; inhibition at 0.2 µg/mL [1]: 43%; inhibition at 0.4 µg/mL ([1]; 0.4 micrograms/ml): 44%; inhibition at 1.6 µg/mL ([1]; 1.6 micrograms/ml): 72%; inhibition at 2 µg/mL ([1]; 2.0 micrograms/ml): 81%; inhibition at 6.4 µg/mL ([1]; 6.4 micrograms/ml): 91%; % Inhibition in cholesterol biosynthesis (cholesterol biosynthesis; oral dose 1.11 mg/kg): 67%; % Inhibition in cholesterol biosynthesis (cholesterol biosynthesis; oral dose 3.33 mg/kg): 77%; % Inhibition in cholesterol biosynthesis (cholesterol biosynthesis; oral dose 10.0 mg/kg): 91%
"CC(C)c1c(/C=C/C(=O)CC(O)CC(=O)O)c(-c2ccc(F)cc2)c2c3ccccc3ccn12 (centres unmarked) [Compound Q, sodium (E)-3-hydroxy-7-{3-isopropyl-1-(4-fluorophenyl)pyrrolo-[2,1-a]isoquinolin-2-yl}-5-oxohept-6-enoate]",,8,45,70,89,,22,
"CCc1c(/C=C/C(O)CC(O)CC(=O)O)c(-c2ccc(F)cc2)c2c3ccccc3ccn12 (centres unmarked) [Compound K, sodium (E)-3,5-dihydroxy-7-{3-ethyl-1-(4-fluorophenyl)pyrrolo-[2,1-a]isoquinolin-2-yl}hept-6-enoate]",27,33,68,86,95,,46,
"CC(C)c1c(/C=C/C(O)CC(O)CC(=O)O)c(-c2ccc(F)cc2)c2c3ccccc3ccn12 (centres unmarked) [O, sodium (E)-3,5-dihydroxy-7-{3-isopropyl-1-(4-fluorophenyl)pyrrolo[2,1-a]isoquinolin-2-yl}-hept-6-enoate]",,,81,92,97,99,69,
"CC(C)c1c(/C=C/C(O)CC(O)CC(=O)O)c(-c2ccc(F)cc2)n2ccc3ccccc3c12 (centres unmarked) [Compound M, sodium (E)-3,5-dihydroxy-7-{1-isopropyl-3-(4-fluorophenyl)pyrrolo[2,1-a]isoquinolin-2-yl}hept-6-enoate]",,,78,90,96,98,,inhibition at 0.0025 µg/mL ([1]; 0.0025 micrograms/ml): 33%; inhibition at 0.0074 µg/mL ([1]; 0.0074 micrograms/ml): 46%; inhibition at 0.022 µg/mL ([1]; 0.022 micrograms/ml): 63%; inhibition at 0.066 µg/mL ([1]; 0.066 micrograms/ml): 69%; inhibition at 0.2 µg/mL [1]: 74%; inhibition at 0.22 µg/mL ([1]; 0.22 micrograms/ml): 65%
"CC(C)c1c(CCC2CC(O)CC(=O)O2)c(-c2ccccc2)c2c3ccccc3ccn12 (centres unmarked) [Compound G, 4-hydroxy-6-[2-(3-isopropyl-1-phenylpyrrolo[2,1-a]isoquinolin-2-yl)ethyl]-3,4,5,6-tetrahydro-2H-pyran-2-one]",,,,,,44,,inhibition at 6.7 µg/mL [1]: 38%
"CC(C)c1c(/C=C/C(=O)CC(O)CC(=O)O)c(-c2ccccc2)c2c3ccccc3ccn12 (centres unmarked) [Compound E, (E)-3-hydroxy-7-(3-isopropyl-1-phenylpyrrolo[2,1-a]isoquinolin-2-yl)-5-oxohept-6-enoic acid]",,,,,,90,,inhibition at 2.2 µg/mL ([1]; 2.2 micrograms/ml): 50%; inhibition at 6.7 µg/mL [1]: 71%

# Second part, led by results:
inhibition at 0.0274 µg/mL [1] [%],SMILES,inhibition at 0.082 µg/mL [1] [%],inhibition at 0.74 µg/mL [1] [%],inhibition at 2.22 µg/mL [1] [%],inhibition at 6.66 µg/mL [1] [%],inhibition at 20 µg/mL [1] [%],inhibition at 0.24 µg/mL [1] [%],also measured
21,"CC(C)c1c(/C=C/[C@@H](O)C[C@H](O)CC(=O)O)c(-c2ccc(F)cc2)c2c3ccccc3ccn12 (relative stereo) [OB, sodium threo-(E)-3,5-dihydroxy-7-{3-isopropyl-1-(4-fluorophenyl)pyrrolo[2,1-a]isoquinolin-2-yl}-hept-6-enoate]",29,53,70,,,,inhibition at 0.25 µg/mL [1]: 38%
55,"CCOC(=O)CC(O)CC(O)/C=C/c1c(-c2ccc(F)cc2)c2c3ccccc3ccn2c1C(C)C (centres unmarked) [N, ethyl (E)-3,5-dihydroxy-7-{3-isopropyl-1-(4-fluorophenyl)pyrrolo[2,1-a]isoquinolin-2-yl}hept-6-enoate]",61,87,95,,,,inhibition at 0.0091 µg/mL [1]: 44%; inhibition at 0.25 µg/mL [1]: 74%
51,"CC(C)c1c(/C=C/[C@@H](O)C[C@@H](O)CC(=O)O)c(-c2ccc(F)cc2)c2c3ccccc3ccn12 (relative stereo) [OA, sodium erythro-(E)-3,5-dihydroxy-7-{3-isopropyl-1-(4-fluorophenyl)pyrrolo[2,1-a]isoquinolin-2-yl}-hept-6-enoate]",63,87,95,,,74,inhibition at 0.00304 µg/mL ([1]; 0.00304 micrograms/ml): 37%; inhibition at 0.0091 µg/mL [1]: 43%
